Publication PMC12526156, “Optimization of the Macrocyclic Tetrapeptide [D-Trp]CJ-15,208 to Prevent Stress-Induced Relapse of Cocaine-Seeking Behavior” (Molecules, 2025)
Converted amounts (≈) assume the structure as drawn. Where a SMILES comes first, the peptide text is derived from it. [ ]: non-standard residue; d: D form. dPhe(3,4,5-F3) = N[C@H](Cc1cc(F)c(F)c(F)c1)C(=O)O; dPhe(F5) = N[C@H](Cc1c(F)c(F)c(F)c(F)c1F)C(=O)O; dTrp(1-Me) = Cn1cc(C[C@@H](N)C(=O)O)c2ccccc21; dPhe(3,4-F2) = N[C@H](Cc1ccc(F)c(F)c1)C(=O)O; dPhe(4-NH2) = Nc1ccc(C[C@@H](N)C(=O)O)cc1; dPhe(2-Me) = Cc1ccccc1C[C@@H](N)C(=O)O

Assays:
hKOR [1] = biological target: T1, hKOR (Homo sapiens, UniProt P41145); test: Competition binding, [3H]U69,593, hKOR-CHO membranes; conditions: for Ki: [3H]U69,593, human KOR, ± S.E.M., three independent experiments, read-out: KOR Ki
[2] = Metabolic stability in human liver microsomes; type: in vitro ADME; conditions: human liver microsomes, 1 mg protein/mL; for half-life at 1 µM: 1 µM compound, 37 °C, read-out: HLM t1/2; for microsomal CLint at 1 µM: read-out: HLM CLint
Description: (§1) Evaluation of the metabolic stability of the macrocyclic tetrapeptides by human and mouse liver microsomes was performed by Curia Global (Buffalo, NY, USA). […]

human MOR = biological target: T2, human MOR (Homo sapiens, UniProt P35372); test: biochemical; type: binding; conditions: [3H]DAMGO, human MOR; ± S.E.M., three independent experiments; read-out: MOR Ki
T2 construct: expressed in transfected cells

hKOR [3] = biological target: T1, hKOR; test: KOR cAMP assay using GloSensor-22F, agonist mode (KOR-CHO-GLO cells); type: cell-based; conditions: read-out: KOR Efficacy (%)
[4] = Metabolic stability in mouse liver microsomes; type: in vitro ADME; conditions: mouse liver microsomes, 1 mg protein/mL; for half-life at 1 µM: 1 µM compound, 37 °C, read-out: MLM t1/2; for microsomal CLint at 1 µM: read-out: MLM CLint
Description: as §1

hKOR [5] = biological target: T1, hKOR; test: KOR cAMP assay using GloSensor-22F, antagonist mode (vs 10 nM U50,488); type: cell-based
Text: A piggy-Bac (PB) transposon/transposase system was utilized to allow for the stable integration of the GloSensor-22F cAMP sensor (Promega, Madison, WI, USA) gene into genomic TTAA sites in Chinese hamster ovary cells already stably expressing the hKOR. The pFastBac hyperPB plasmid vector, which codes for the piggy-Bac transposon/transposase system, was utilized and was a kind gift from Dr. John Lueck. The multicistronic expression cassette developed for our experiments consisted of a CMV promoter driving constitutive expression of GloSensor-22F cAMP sensor, followed by an internal ribosome entry site (IRES) to drive the expression of codon-optimized HygR-P2A-mScarlet (hygromycin resistance gene and mScarlet separated by a 2A self-cleaving peptide element). To clone the expression cassette onto the pFastBac vector, the CMV promoter and GloSensor-22F were PCR amplified from pGloSensor-22F cAMP Plasmid (Promega), the IRES sequence was PCR amplified from pLVX-CMV-Galpha-oA ONE-GO (a gift from Dr. Mikel Garcia-Marcos, Addgene plasmid #189732), the HygR-P2A-mScarlet sequence was a kind gift from Dr. Lueck, and a bGH-poly(A) termination sequence was PCR amplified from pcDNA3.1(+). The pFastBac vector was linearized via overnight digestion with CspCI at 37 °C, which cuts between two inverted terminal repeat (ITR) sequences, and the corresponding backbone and all PCR fragments were gel purified and assembled via Gibson assembly using the Gibson Assembly MasterMix (New England Biolabs, Ipswich, MA, USA). The resulting pFastBac CMV GloSensor-22F IRES HygR-P2A-mScarlet bGH plasmid was transformed into NEB Stable Competent E. coli (New England Biolabs), miniprepped using the E.Z.N.A. Plasmid DNA Mini Kit (Omega Bio-Tek, Norcross, GA, USA), and sequence verified by nanopore whole-plasmid sequencing (Eurofins Genomics, Louisville, KY, USA).
3.0 × 10^6 hKOR-CHO cells were plated on a 6 cm dish and incubated for four h at 37 °C and 5% CO2 in DMEM (Corning Mediatech, Manassas, VA, USA) supplemented with 5% FBS (Corning Mediatech), 1% Penicillin/Streptomycin (Gibco, Waltham, MA, USA). The cells were then transfected with 2.0 μg pFastBac CMV GloSensor-22F IRES HygR-P2A-mScarlet bGH using PEI as a transfection reagent. The following day, transfected cells were reseeded onto a 10 cm dish at a density of 5.0 × 10^5 cells and 600 μg/mL hygromycin B (Gold Bio, St. Louis, MO, USA) was added to the culture media. Cells were cultured under selection antibiotics for seven days, and the selection process was monitored by the increase in abundance of mScarlet positive cells via epifluorescence microscopy.
Following the selection period, KOR-CHO-GLO cells were maintained at 37 °C and 5% CO2 in DMEM supplemented with 5% FBS, 1% Penicillin/Streptomycin and 300 μg/mL hygromycin B to reduce the likelihood of CMV promoter silencing. On the day of the assay, cells were detached with 0.05% trypsin (Gibco) and counted, then centrifuged (1000× g, 5 min) and resuspended in assay buffer (1xPBS, 0.1% glucose, 0.5 mM MgCl2) containing 4 mM D-luciferin substrate (Gold Bio) at approximately 2 million cells/mL. 25 μL of cells (~50,000/well) were seeded onto poly L-lysine-coated white 96-well flat bottom plates (Greiner Bio-One, Kremsmünster, Austria)) and returned to the incubator for 60 min. Following incubation, cells were allowed to equilibrate to room temperature protected from light (10–15 min). Initial luminescence readings (at least 10 cycles) were collected for each well using a FLUOstar Omega v.6.2 plate reader (BMG Labtech, Ortenberg, Germany), after which the plate was removed. Prepared 4x treatments of drug (25 μL) were added to appropriate wells followed by 50 μL of 20 μM forskolin (AmBeed, Buffalo Grove, IL, USA) before the plate was returned to the reader and luminescence measured until final plateau levels were achieved (20–30 min). Assays were performed in duplicate and repeated at least three times.

[6] = Kinetic aqueous solubility; type: physicochemical; conditions: 1% DMSO, pH 7.4
Text: Table A1 Stability of [D-Trp]- and [D-Phe^4]CJ-15,208 and selected analogs in human (HLMs) and mouse liver microsomes (MLMs)^1. and kinetic aqueous solubility. | column: Solubility ^2 / (µM)

C57BL/6J mice = test: 55 °C warm-water tail-withdrawal assay, antinociception; type: in vivo, mouse
Description: For intracerebroventricular administration, peptides were dissolved in DMSO at a concentration of 20 mM (100 nmol/5 µL), then diluted to test doses in a final vehicle solution of 50%DMSO/50% saline (0.9%). For all other testing (for oral administration), peptides were made fresh each day for testing in a final vehicle solution of 10% DMSO/10% Solutol/80% saline (0.9%).
Intracerebroventricular injections were made directly into the lateral ventricle according to the modified steps detailed previously. The volume of all i.c.v. injections was 5 μL, using a 10 μL Hamilton microliter syringe. The mouse was lightly anesthetized with isoflurane, an incision was made in the scalp, and the injection was made 2 mm lateral and 2 mm caudal to bregma at a depth of 3 mm.
The dose response of analogs 3, 6, 9 and 14 were also assessed following administration of one of up to four additional oral (p.o.) doses (1–30 mg/kg).

[7] = 30 mg/kg, p.o., 30 min after administration

Structure (SMILES)	inhibition at 10 µM (hKOR [1]; at 10 μM)	half-life at 1 µM [2]	microsomal CLint at 1 µM [2]	Ki (human MOR)	Emax at 10 µM (hKOR [3])	half-life at 1 µM [4]	microsomal CLint at 1 µM [4]	Selectivity (MOR Ki/KOR Ki) (hKOR [1])	Ki (hKOR [1])	IC50 (hKOR [5])	solubility kinetic [6]	fold decrease in KOR affinity (fluorine substitution on D-Phe^4) (hKOR [1])	antinociception vs vehicle (C57BL/6J mice; [7])	antinociception vs vehicle (C57BL/6J mice; 30 nmol, i.c.v., positive control)
Nc1ccc(C[C@H]2NC(=O)[C@H](Cc3ccccc3)NC(=O)[C@H]3CCCN3C(=O)[C@H](Cc3ccccc3)NC2=O)cc1 [Analog 17] (cyclo(F[dP]F[dPhe(4-NH2)]))	65%	–	–	–	–	–	–	–	–	–	–	–	–	–
Cn1cc(C[C@H]2NC(=O)[C@H](Cc3ccccc3)NC(=O)[C@H]3CCCN3C(=O)[C@H](Cc3ccccc3)NC2=O)c2ccccc21 [Analog 2, [D-Trp(Me)]CJ-15,208] (cyclo(F[dP]F[dTrp(1-Me)]))	–	2.4 min	286 µL/min/mg	36 ± 2.6 nM	14 ± 7.1%	3.3 min	211 µL/min/mg	2	16 ± 0.8 nM	220 ± 32 nM	12 µM (≈ 7.1 µg/mL)	–	–	–
O=C1N[C@H](Cc2c(F)c(F)c(F)c(F)c2F)C(=O)N[C@@H](Cc2ccccc2)C(=O)N2CCC[C@@H]2C(=O)N[C@H]1Cc1ccccc1 [Analog 12] (cyclo(F[dP]F[dPhe(F5)]))	–	–	–	–	–	–	–	–	310 ± 9.9 nM	–	–	13 fold	–	–
O=C1N[C@H](Cc2ccc(F)c(F)c2)C(=O)N[C@@H](Cc2ccccc2)C(=O)N2CCC[C@@H]2C(=O)N[C@H]1Cc1ccccc1 [Analog 8] (cyclo(F[dP]F[dPhe(3,4-F2)]))	–	2.2 min	309 µL/min/mg	57 ± 5.6 nM	13 ± 2.7%	1.1 min	629 µL/min/mg	9	6.6 ± 0.73 nM	170 ± 28 nM	9.5 µM (≈ 5.46 µg/mL)	–	significant antinociception	–
O=C1N[C@H](Cc2cc(F)c(F)c(F)c2)C(=O)N[C@@H](Cc2ccccc2)C(=O)N2CCC[C@@H]2C(=O)N[C@H]1Cc1ccccc1 [Analog 11] (cyclo(F[dP]F[dPhe(3,4,5-F3)]))	–	1.6 min	447 µL/min/mg	46 ± 5.4 nM	2.2 ± 6.2%	2.9 min	238 µL/min/mg	4	12 ± 0.44 nM	160 ± 19 nM	4.8 µM (≈ 2.84 µg/mL)	–	–	–
CN1CC[C@]23c4c5ccc(O)c4O[C@H]2[C@@H](O)C=C[C@H]3[C@H]1C5 [morphine, reference compound]	–	–	–	–	–	–	–	–	–	–	–	–	significant antinociception	significant antinociception
Cc1ccccc1C[C@H]1NC(=O)[C@H](Cc2ccccc2)NC(=O)[C@H]2CCCN2C(=O)[C@H](Cc2ccccc2)NC1=O [Analog 13] (cyclo(F[dP]F[dPhe(2-Me)]))	–	–	–	280 ± 8 nM	–	–	–	2.5	110 ± 13 nM	–	–	–	–	–
